# According to the supplement of paper PMC10307832:
# Legend:
# Assay in all cases: relative viability (nuclei count vs DMSO), 5 days (fraction); higher = more cells survive
# Crizotinib + Navitoclax = compound: C[C@@H](Oc1cc(-c2cnn(C3CCNCC3)c2)cnc1N)c1c(Cl)ccc(F)c1Cl [Crizotinib] + CC1(C)CCC(c2ccc(Cl)cc2)=C(CN2CCN(c3ccc(C(=O)NS(=O)(=O)c4ccc(N[C@H](CCN5CCOCC5)CSc5ccccc5)c(S(=O)(=O)C(F)(F)F)c4)cc3)CC2)C1 [Navitoclax] (partner 0.5 µM)
# Method in brief: (§1)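 For relative viability, nuclei counts in treated wells were divided by those in vehicle wells. Lung cancer cell lines had been pin-tool dosed in 1536-well plates the day after seeding and cultured for 5 days, then fixed and stained in one step (final 0.05% Triton X-100, 1% formaldehyde, 1 ug/ml Hoechst) and imaged at 4×. Doses were one drug alone or a fixed anchor-drug dose plus five library-drug doses (not always all listed) in √10 steps, and values are duplicate-plate medians.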
# Carfilzomib + Luminespib = compound: CC(C)C[C@H](NC(=O)[C@H](CCc1ccccc1)NC(=O)CN1CCOCC1)C(=O)N[C@@H](Cc1ccccc1)C(=O)N[C@@H](CC(C)C)C(=O)[C@@]1(C)CO1 [Carfilzomib] + CCNC(=O)c1noc(-c2cc(C(C)C)c(O)cc2O)c1-c1ccc(CN2CCOCC2)cc1 [Luminespib] (partner 0.01 µM)
# Method in brief: as §1
# Olaparib + Decitabine = compound: O=C(c1cc(Cc2n[nH]c(=O)c3ccccc23)ccc1F)N1CCN(C(=O)C2CC2)CC1 [Olaparib] + Nc1ncn([C@H]2C[C@H](O)[C@@H](CO)O2)c(=O)n1 [Decitabine] (partner 2 µM)
# Method in brief: as §1
# Carfilzomib + Alpelisib = compound: CC(C)C[C@H](NC(=O)[C@H](CCc1ccccc1)NC(=O)CN1CCOCC1)C(=O)N[C@@H](Cc1ccccc1)C(=O)N[C@@H](CC(C)C)C(=O)[C@@]1(C)CO1 [Carfilzomib] + Cc1nc(NC(=O)N2CCC[C@H]2C(N)=O)sc1-c1ccnc(C(C)(C)C(F)(F)F)c1 [Alpelisib] (partner 2 µM)
# Method in brief: as §1
Cell Line,relative viability (Crizotinib + Navitoclax; first compound 0.01 µM),relative viability (Crizotinib + Navitoclax; first compound 0.03162 µM),relative viability (Crizotinib + Navitoclax; first compound 0.3162 µM),relative viability (Crizotinib + Navitoclax; first compound 1 µM),relative viability (Carfilzomib + Luminespib; first compound 0.001 µM),relative viability (Carfilzomib + Luminespib; first compound 0.003162 µM),relative viability (Carfilzomib + Luminespib; first compound 0.01 µM),relative viability (Carfilzomib + Luminespib; first compound 0.03162 µM),relative viability (Carfilzomib + Luminespib; first compound 0.1 µM),relative viability (Olaparib + Decitabine; first compound 0.08 µM),relative viability (Olaparib + Decitabine; first compound 0.253 µM),relative viability (Olaparib + Decitabine; first compound 2.53 µM),relative viability (Olaparib + Decitabine; first compound 8 µM),relative viability (Carfilzomib + Alpelisib; first compound 0.001 µM),relative viability (Carfilzomib + Alpelisib; first compound 0.003162 µM),relative viability (Carfilzomib + Alpelisib; first compound 0.01 µM),relative viability (Carfilzomib + Alpelisib; first compound 0.03162 µM),relative viability (Carfilzomib + Alpelisib; first compound 0.1 µM),relative viability (Crizotinib + Navitoclax; first compound 0.1 µM)
LXF-289,0.856,0.931,0.879,0.939,0.654,0.761,0.552,0.515,0.0761,0.336,0.302,0.272,0.232,1.06,1.07,0.979,0.0883,0.0581,–
NCI-H23,0.85,0.738,–,0.816,0.211,0.201,0.201,0.188,0.184,0.336,0.313,0.259,0.277,0.741,0.84,0.857,0.207,0.112,0.688
NCI-H322M,1.07,1.12,1.13,1.3,0.719,0.951,0.849,0.713,0.291,0.685,0.592,0.708,0.596,0.796,0.757,0.365,0.748,0.509,1.19
NCI-H441,0.959,0.571,–,0.798,0.303,0.308,0.318,0.208,0.173,0.257,0.197,0.243,0.188,0.946,0.842,0.2,0.102,0.15,0.682
NCI-H460,–,1.03,1.2,1.13,0.0383,0.0252,0.0369,0.0311,0.0158,0.114,0.128,0.0907,0.062,0.556,0.462,0.538,0.101,0.0126,1.1
NCI-H520,1.01,1.05,–,1.12,0.231,0.227,0.18,0.22,0.247,0.467,0.318,0.365,0.261,1.11,0.951,0.574,0.138,0.137,1.31
NCI-H596,0.845,–,1,0.964,1.16,1.05,1.14,0.354,0.195,0.915,0.9,0.732,0.632,0.467,0.566,0.464,0.276,0.194,–
NCI-H647,1.01,1.21,–,1.06,0.203,0.143,0.2,0.0957,0.0461,0.293,0.253,0.227,0.152,1.14,1.19,0.71,0.025,0.0242,1.03
NCI-H727,0.394,0.459,0.436,0.393,0.32,0.436,0.294,0.498,0.201,0.908,0.858,0.893,0.805,0.683,0.542,0.655,0.421,0.0733,0.505
NCI-H838,1.14,1.14,1.19,1.13,0.27,0.255,0.301,0.19,0.13,0.416,0.32,0.354,0.323,0.979,1.09,1.06,0.992,0.122,1.16
NCI-H1355,0.901,1.02,0.923,0.931,0.723,0.791,0.731,0.606,0.238,0.37,0.345,0.304,0.31,0.753,0.767,0.737,0.584,0.139,0.929
NCI-H1395,1.12,0.956,1.21,–,0.594,0.783,0.66,0.561,0.309,0.64,0.654,0.504,0.494,0.995,1.27,1.19,0.335,0.356,1.09
NCI-H1437,1.05,1.07,1.02,1.13,1.08,1.24,1.11,0.94,0.249,0.458,0.391,0.434,0.386,0.982,1.01,0.943,0.54,0.101,1.14
NCI-H1651,0.98,1.12,1.15,1.28,0.766,0.913,0.916,0.2,0.12,0.356,0.277,0.224,0.168,0.927,0.881,0.725,0.0951,0.0668,0.997
NCI-H1666,0.93,0.81,0.876,1.06,0.993,1.06,1.11,0.863,0.358,0.778,0.604,0.636,0.597,1.06,1.05,1.03,0.3,0.231,0.857
NCI-H1734,0.888,0.81,–,–,0.188,0.177,0.235,0.184,0.107,0.418,0.311,0.237,0.229,0.695,0.832,0.69,0.367,0.165,0.844
NCI-H1755,0.937,1.02,0.961,0.983,0.54,0.367,0.481,0.288,0.453,0.666,0.621,0.577,0.562,0.917,0.948,0.925,0.601,0.202,0.999

Cell Line,relative viability (Crizotinib + Navitoclax; first compound 0.01 µM),relative viability (Crizotinib + Navitoclax; first compound 0.03162 µM),relative viability (Crizotinib + Navitoclax; first compound 0.3162 µM),relative viability (Crizotinib + Navitoclax; first compound 1 µM),relative viability (Carfilzomib + Luminespib; first compound 0.001 µM),relative viability (Carfilzomib + Luminespib; first compound 0.003162 µM),relative viability (Carfilzomib + Luminespib; first compound 0.01 µM),relative viability (Carfilzomib + Luminespib; first compound 0.03162 µM),relative viability (Carfilzomib + Luminespib; first compound 0.1 µM),relative viability (Olaparib + Decitabine; first compound 0.08 µM),relative viability (Olaparib + Decitabine; first compound 0.253 µM),relative viability (Olaparib + Decitabine; first compound 2.53 µM),relative viability (Olaparib + Decitabine; first compound 8 µM),relative viability (Carfilzomib + Alpelisib; first compound 0.001 µM),relative viability (Carfilzomib + Alpelisib; first compound 0.003162 µM),relative viability (Carfilzomib + Alpelisib; first compound 0.01 µM),relative viability (Carfilzomib + Alpelisib; first compound 0.03162 µM),relative viability (Carfilzomib + Alpelisib; first compound 0.1 µM),relative viability (Crizotinib + Navitoclax; first compound 0.1 µM)
NCI-H1792,0.629,0.679,0.398,0.577,0.425,0.423,0.482,0.456,0.356,0.336,0.264,0.234,0.19,0.648,0.742,0.674,0.756,0.386,0.745
NCI-H1915,0.694,0.782,–,0.801,0.698,0.781,0.766,0.375,0.0837,0.242,0.239,0.234,0.196,1.05,1.1,1.04,0.689,0.0648,0.818
NCI-H1944,1.01,0.995,1.03,1.05,0.698,0.774,0.707,0.732,0.205,0.397,0.401,0.336,0.273,0.776,0.877,0.776,0.938,0.304,1
NCI-H1975,0.965,1.06,1.26,1.06,0.2,0.185,0.261,0.167,0.16,0.339,0.312,0.331,0.248,0.584,0.646,0.281,0.117,0.126,1.03
NCI-H1993,0.769,0.897,0.831,0.805,0.9,0.932,0.983,0.71,0.462,0.512,0.59,0.666,0.636,0.717,0.654,0.765,0.521,0.483,0.669
NCI-H2009,1.1,1.16,1.21,1.22,1.1,1.06,1.03,1.08,0.121,0.391,0.336,0.337,0.32,1.24,1.21,1.21,0.959,0.0547,1.17
NCI-H2023,0.98,0.985,0.932,–,0.81,0.795,0.626,0.362,0.0768,0.172,0.143,0.135,0.126,0.605,0.539,0.732,0.488,0.0793,0.994
NCI-H2085,1.02,1.09,1.07,1.2,0.505,0.472,0.359,0.205,0.189,0.545,0.49,0.43,0.46,0.978,1.1,0.908,0.43,0.282,1.03
NCI-H2087,0.828,0.996,0.888,1.19,0.212,0.146,0.215,0.0619,0.0448,0.249,0.189,0.262,0.167,1.13,1.25,0.83,0.0689,0.0648,1.09
NCI-H2126,0.834,0.826,0.759,0.832,0.875,0.999,0.938,0.744,0.465,0.614,0.544,0.541,0.542,0.683,0.787,0.792,0.774,0.563,0.842
NCI-H2170,0.536,0.603,0.468,0.632,0.635,0.666,0.612,0.579,0.311,0.422,0.369,0.277,0.253,0.801,0.775,0.875,0.659,0.24,0.574
NCI-H2347,0.682,0.734,0.799,0.852,0.509,–,0.266,0.346,0.201,0.644,0.558,0.531,0.516,0.96,1.18,1.05,0.875,0.345,0.849
NCI-H2405,0.816,0.815,0.858,0.862,–,0.873,0.851,0.759,0.32,0.681,0.55,0.458,0.486,–,1.13,0.777,0.312,0.168,0.79
NCI-H3122,0.99,0.993,1.02,–,0.064,0.0963,0.106,0.107,0.106,0.385,0.351,0.259,0.256,0.748,0.847,0.748,0.959,0.69,1.04
PC-3 [JPC-3],0.809,0.807,0.684,0.858,0.754,0.706,0.742,0.646,0.331,0.82,–,0.761,0.741,1.07,1.08,1.02,0.824,0.257,0.815
PC-14,0.983,0.96,1.04,0.998,0.143,0.176,0.18,0.117,0.109,0.153,0.124,0.101,0.105,0.958,0.981,0.976,0.0805,0.0691,0.991
